Measurements reported in ChEMBL document CHEMBL4196051, “Pyrazole-pyrazoline as promising novel antimalarial agents: A mechanistic study” (Eur J Med Chem, 2018).

Columns and labels:
[1] = test system: Plasmodium falciparum; test: Antimalarial activity against chloroquine-sensitive Plasmodium falciparum 3D7 infected in red blood cells assessed as reduction in mature schizonts formation after 24 hrs by Giemsa-staining based assay; type: functional, organism-based; conditions: 3D7, 24 h
[2] = Cytotoxicity against African green monkey Vero cells assessed as reduction in cell viability after 72 hrs by MTT assay; type: cell-based; conditions: chlorocebus sabaeus
[3] = Selectivity index, ratio of CC50 for African green monkey Vero cells to EC50 for chloroquine-sensitive Plasmodium falciparum 3D7; type: toxicity; conditions: read-out: Ratio CC50/EC50
[4] = Selectivity index, ratio of CC50 for African green monkey Vero cells to EC50 for chloroquine-resistant Plasmodium falciparum RKL9; type: toxicity; conditions: read-out: Ratio CC50/EC50
[5] = Resistance Index, ratio of EC50 for chloroquine-resistant Plasmodium falciparum RKL9 to EC50 for chloroquine-sensitive Plasmodium falciparum 3D7; type: functional
[6] = test system: Plasmodium falciparum; test: Antimalarial activity against chloroquine-resistant Plasmodium falciparum RKL9 infected in red blood cells assessed as reduction in mature schizonts formation after 24 hrs by Giemsa-staining based assay; type: functional, organism-based; conditions: RKL9, 24 h
[7] = test system: Plasmodium berghei; test: Antimalarial activity against Plasmodium berghei NK65 infected in Swiss albino mouse assessed as reduction in parasitemia at 50 mg/kg, po treated up to day 3 measured at day 4 by Giemsa-staining based microscopic analysis relative to control; type: functional; set-up: scale not given: the % may be the effect or the level left
[8] = test system: Plasmodium berghei; test: Antimalarial activity against Plasmodium berghei NK65 infected in Swiss albino mouse assessed as reduction in parasitemia at 25 mg/kg, po treated up to day 3 measured at day 4 by Giemsa-staining based microscopic analysis relative to control; type: functional; set-up: scale not given: the % may be the effect or the level left
[9] = test system: Plasmodium berghei; test: Antimalarial activity against Plasmodium berghei NK65 infected in Swiss albino mouse assessed as mean survival days at 50 mg/kg, po treated up to day 3 measured over 30 days (reference value: 7.2 days); type: functional
[10] = test system: Heme; test: Binding affinity to monomeric heme in DMSO/HEPES buffer solution at pH 7.4 by titration analysis
[11] = test system: Plasmodium berghei; test: Antimalarial activity against Plasmodium berghei NK65 infected in Swiss albino mouse assessed as mean survival days at 25 mg/kg, po treated up to day 3 measured over 30 days (reference value: 7.2 days); type: functional
[12] = test system: Heme; test: Binding affinity to monomeric heme in DMSO/HEPES buffer solution at pH 5.6 by titration analysis
[13] = test system: mu-oxodimeric heme; test: Binding affinity to mu-oxodimeric heme in 0.1M NaOH solution at pH 5.8 by titration analysis
[14] = test system: Plasmodium falciparum; test: Antimalarial activity against chloroquine-resistant Plasmodium falciparum W2 after 48 hrs by LDH assay; type: functional, organism-based; conditions: W2, 48 h
[15] = test system: Heme; test: Inhibition of heme crystal growth
[16] = test system: Plasmodium falciparum; test: Antimalarial activity against chloroquine-sensitive Plasmodium falciparum 3D7 infected in red blood cells assessed as reduction in mature schizonts formation after 72 hrs by Giemsa-staining based assay; type: functional, organism-based; conditions: 3D7, 72 h
[17] = test system: Plasmodium falciparum; test: Antimalarial activity against Plasmodium falciparum; type: functional, organism-based
[18] = test system: Plasmodium berghei; test: Antimalarial activity against Plasmodium berghei NK65 infected in Swiss albino mouse assessed as reduction in parasitemia at 5 mg/kg, po treated up to day 3 measured at day 4 by Giemsa-staining based microscopic analysis relative to control; type: functional; set-up: scale not given: the % may be the effect or the level left
[19] = test system: Plasmodium berghei; test: Antimalarial activity against Plasmodium berghei NK65 infected in Swiss albino mouse assessed as mean survival days at 5 mg/kg, po treated up to day 3 measured over 30 days (reference value: 7.2 days); type: functional

`NS(=O)(=O)c1ccc(N2N=C(c3ccc(F)cc3)CC2c2cn(-c3ccccc3)nc2-c2ccc(F)cc2)cc1` (configuration not stated) gave an EC50 [1] of 6.36 µM, a CC50 at 72 h [2] greater than 753 µM and a selectivity ratio [3] greater than 212. The selectivity ratio [4] was greater than 212.

`COc1ccc(C2=NN(c3ccc(S(N)(=O)=O)cc3)C(c3cn(-c4ccccc4)nc3-c3ccc(Cl)cc3)C2)cc1` (configuration not stated) showed an EC50 [1] of 1.61 µM, a Ratio EC50 [5] of 1.31 and a CC50 at 72 h [2] of 31.3 µM. It also gave a selectivity ratio [3] of 33.2, a selectivity ratio [4] of 33.2 and an EC50 [6] of 2.12 µM.

Molecule `COc1ccc(C2=NN(c3ccc(S(N)(=O)=O)cc3)C(c3cn(-c4ccccc4)nc3-c3ccccc3)C2)cc1` (configuration not stated) has an EC50 [1] of 1.42 µM, a Ratio EC50 [5] of 1.25 and a CC50 at 72 h [2] of 40.2 µM. For the same molecule, the selectivity ratio [3] was 51.4, the selectivity ratio [4] was 51.4 and the EC50 [6] was 1.78 µM.

For `NS(=O)(=O)c1ccc(N2N=C(c3ccc(O)cc3)CC2c2cn(-c3ccccc3)nc2-c2ccccc2)cc1` (configuration not stated), the EC50 [1] was 3.05 µM, the CC50 at 72 h [2] was greater than 161 µM and the selectivity ratio [3] was greater than 98. For the same molecule, the selectivity ratio [4] was greater than 98.

Work on `NS(=O)(=O)c1ccc(N2N=C(c3ccc(Cl)cc3)CC2c2cn(-c3ccccc3)nc2-c2ccccc2)cc1` (configuration not stated) yielded an EC50 [1] of 3.35 µM, a CC50 at 72 h [2] greater than 207 µM and a selectivity ratio [3] greater than 111. For the same molecule, the selectivity ratio [4] was greater than 111.

With `COc1ccc(C2=NN(c3ccc(S(N)(=O)=O)cc3)C(c3cn(-c4ccccc4)nc3-c3ccc(C)cc3)C2)cc1` (configuration not stated) the Activity [7] was 82.49%, the Activity [8] was 68.42% and the MSD [9] was 19.8 days. It also gave an EC50 [1] of 1.38 µM, a log K [10] of 5.12 and an MSD [11] of 13.4 days. For the same molecule, the Ratio EC50 [5] was 0.94, the CC50 at 72 h [2] was greater than 36.6 µM and the log K [12] was 5.58. For the same molecule, the log K [13] was 5.19, the selectivity ratio [3] was greater than 46.8 and the selectivity ratio [4] was greater than 46.8. It also gave an EC50 [6] of 1.31 µM.

`NS(=O)(=O)c1ccc(N2N=C(c3ccc(Br)cc3)CC2c2cn(-c3ccccc3)nc2-c2ccc(F)cc2)cc1` (configuration not stated) showed an EC50 [1] of 3.08 µM, a CC50 at 72 h [2] of 49.4 µM and a selectivity ratio [3] of 25.9. It also gave a selectivity ratio [4] of 25.9.

Molecule `NS(=O)(=O)c1ccc(N2N=C(c3ccc(F)cc3)CC2c2cn(-c3ccccc3)nc2-c2ccccc2)cc1` (configuration not stated) has an EC50 [1] of 6.67 µM, a CC50 at 72 h [2] greater than 807 µM and a selectivity ratio [3] greater than 225. The selectivity ratio [4] was greater than 225.

For `C[n+]1c2ccc(Br)cc2cc2[nH]c3ccc(Br)cc3c21`, the IC50 [14] was 4 µM.

Molecule `Clc1ccc(COC(Cn2ccnc2)c2ccc(Cl)cc2Cl)c(Cl)c1` (configuration not stated) [MICONAZOLE] has an IC50 [15] of 21.4 µM.

With `NS(=O)(=O)c1ccc(N2N=C(c3ccc(Cl)cc3)CC2c2cn(-c3ccccc3)nc2-c2ccc(Cl)cc2)cc1` (configuration not stated) the EC50 [1] was 2.8 µM, the CC50 at 72 h [2] was greater than 164 µM and the selectivity ratio [3] was greater than 99. For the same molecule, the selectivity ratio [4] was greater than 99.

For `COc1ccc(/C=C(\C#N)c2nc3ccccc3[nH]2)cc1`, the IC50 [16] was 0.069 µM.

`Clc1ccccc1C(c1ccccc1)(c1ccccc1)n1ccnc1` [CLOTRIMAZOLE] showed an IC50 [17] of 12.9 µM.

Work on `Cc1ccc(C2=NN(c3ccc(S(N)(=O)=O)cc3)C(c3cn(-c4ccccc4)nc3-c3ccc(C)cc3)C2)cc1` (configuration not stated) yielded an EC50 [1] of 1.43 µM, a Ratio EC50 [5] of 1.14 and a CC50 at 72 h [2] greater than 41.5 µM. For the same molecule, the selectivity ratio [3] was greater than 52.8, the selectivity ratio [4] was greater than 52.8 and the EC50 [6] was 1.64 µM.

With `NS(=O)(=O)c1ccc(N2N=C(c3ccc(O)cc3)CC2c2cn(-c3ccccc3)nc2-c2ccc(F)cc2)cc1` (configuration not stated) the EC50 [1] was 1.57 µM, the Ratio EC50 [5] was 1.29 and the CC50 at 72 h [2] was 32 µM. It also gave a selectivity ratio [3] of 36.9, a selectivity ratio [4] of 36.9 and an EC50 [6] of 2.02 µM.

Molecule `NS(=O)(=O)c1ccc(N2N=C(c3ccc(Cl)cc3Cl)CC2c2cn(-c3ccccc3)nc2-c2ccccc2)cc1` (configuration not stated) has an EC50 [1] of 4.58 µM, a CC50 at 72 h [2] greater than 438 µM and a selectivity ratio [3] greater than 162. It also gave a selectivity ratio [4] greater than 162.

With `COc1ccc(C2=NN(c3ccc(S(N)(=O)=O)cc3)C(c3cn(-c4ccccc4)nc3-c3ccc(F)cc3)C2)cc1` (configuration not stated) the EC50 [1] was 1.65 µM, the Ratio EC50 [5] was 1.44 and the CC50 at 72 h [2] was greater than 53.1 µM. For the same molecule, the selectivity ratio [3] was greater than 56.4, the selectivity ratio [4] was greater than 56.4 and the EC50 [6] was 2.04 µM.

For `COc1cccc(C2=NN(c3ccc(S(N)(=O)=O)cc3)C(c3cn(-c4ccccc4)nc3-c3ccc(C)cc3)C2)c1OC` (configuration not stated), the EC50 [1] was 1.61 µM, the Ratio EC50 [5] was 0.97 and the CC50 at 72 h [2] was greater than 57.4 µM. The selectivity ratio [3] was greater than 60, the selectivity ratio [4] was greater than 60 and the EC50 [6] was 1.55 µM.

`Cc1ccc(-c2nn(-c3ccccc3)cc2C2CC(c3ccccc3)=NN2c2ccc(S(N)(=O)=O)cc2)cc1` (configuration not stated) showed an EC50 [1] of 2.97 µM, a CC50 at 72 h [2] greater than 162 µM and a selectivity ratio [3] greater than 98. It also gave a selectivity ratio [4] greater than 98.

Work on `CCN(CC)CCCC(C)Nc1ccnc2cc(Cl)ccc12` (configuration not stated) [CHLOROQUINE] yielded an EC50 [1] of 2.97 µM, an Activity [18] of 97.1% and an MSD [19] of 30 days. The EC50 [6] was 11.2 µM.

In the case of `COc1ccc(C2=NN(c3ccc(S(N)(=O)=O)cc3)C(c3cn(-c4ccccc4)nc3-c3ccc(OC)cc3)C2)cc1` (configuration not stated), the EC50 [1] is reported as 2.26 µM, the CC50 at 72 h [2] is reported as 104 µM and the selectivity ratio [3] is reported as 78.9. It also gave a selectivity ratio [4] of 78.9.

With `Cc1ccc(C2=NN(c3ccc(S(N)(=O)=O)cc3)C(c3cn(-c4ccccc4)nc3-c3ccc(F)cc3)C2)cc1` (configuration not stated) the EC50 [1] was 2.23 µM, the CC50 at 72 h [2] was greater than 90.7 µM and the selectivity ratio [3] was greater than 73.2. The selectivity ratio [4] was greater than 73.2.
